Like-named read-outs stand apart in the source and are kept apart here.
Key:
prothrombin time (PT) = assay: Study 15L-CL-018: warfarin pharmacodynamics; format: in vivo, human; details: for AUCPT;0–168 h: geometric mean ± SD
Safety assessments = format: in vivo, human
[1] = format: in vivo, human; details: for CL/F: arithmetic mean ± SD
[2] = format: in vivo, human; details: for CL/F: arithmetic mean ± SD; remark: listed apart in the source
[3] = healthy volunteers; cited from earlier work
CYP2B6 = details: cited from earlier work
CYP2C19 [4] = details: cited from earlier work
CYP3A4 = details: in vitro; ref unpublished data; cited from earlier work
CYP2C9 = details: in vitro; ref unpublished data; cited from earlier work
CYP2C19 [5] = details: in vitro; ref unpublished data; cited from earlier work
[6] = healthy volunteers; cited from earlier work; remark: listed apart in the source
[7] = for AUCinf / C max: geometric mean ± SD; for CL/F: arithmetic mean ± SD; for t max: median (range)
[8] = format: in vivo, human; details: for CL/F: arithmetic mean ± SD; remark: listed apart in the source
[9] = with ketoconazole coadministration vs amenamevir alone
[10] = in the presence of rifampicin vs amenamevir alone
[11] = warfarin 25 mg + amenamevir 200 mg once daily, n = 18
[12] = warfarin 25 mg + amenamevir 400 mg once daily, n = 15
[13] = warfarin 25 mg alone, amenamevir 400 mg group, n = 17
[14] = warfarin + amenamevir 200 mg once daily
[15] = warfarin + amenamevir 400 mg once daily
[16] = warfarin alone, amenamevir 200 mg group
[17] = warfarin alone, amenamevir 400 mg group

## CC(=O)CC(c1ccccc1)c1c(O)c2ccccc2oc1=O (centres unmarked) [Warfarin, warfarin]
Prothrombin time (PT); warfarin + amenamevir 200 mg once daily, n = 18
  AUCPT;0–168 h: 2411 ± 199 s h
Prothrombin time (PT); warfarin + amenamevir 400 mg once daily, n = 15
  AUCPT;0–168 h: 2425 ± 163 s h
Prothrombin time (PT); warfarin alone, amenamevir 400 mg group, n = 17
  AUCPT;0–168 h: 2556 ± 254 s h
Prothrombin time (PT); warfarin alone, amenamevir 400 mg group, arithmetic mean ± SD
  tPTmax: 39.5 ± 14.6 h
Safety assessments; study 15L-CL-018, warfarin 25 mg alone
  TEAEs considered to be related to the study drug: nausea and dyspepsia

## CC(=O)N1CCN(c2ccc(OCC3COC(Cn4ccnc4)(c4ccc(Cl)cc4Cl)O3)cc2)CC1 (centres unmarked) [ketoconazole]
Safety assessments; study 15L-CL-008, during the treatment named, n = 22
  participants reporting headache (TEAE): 18.2%

## Cc1cccc(C)c1N(CC(=O)Nc1ccc(-c2ncon2)cc1)C(=O)C1CCS(=O)(=O)CC1 [Amenamevir, amenamevir]
[1]; amenamevir 400 mg + ketoconazole 400 mg once daily
  CL/F: 8.0 ± 2.1 L/h
[1]; amenamevir 400 mg alone
  CL/F: 20.8 ± 5.9 L/h
[1]; based on AUCinf
  pharmacokinetic interaction with ketoconazole (90% CI of LS GMR vs 0.80–1.25): significant interaction
[1]; human, plasma, oral, 400 mg
  Cmax: 1450 ± 329 ng/mL
  half-life: 8.1 ± 1.9 h
  t max: 4 h
[1]; [9]
  decrease of CL/F: 2.6 fold
  increase of mean t ½: 2.2 fold
[2]; amenamevir 400 mg + rifampicin 600 mg once daily
  CL/F: 133.5 ± 40.0 L/h
[2]; amenamevir 400 mg alone
  CL/F: 22.1 ± 5.9 L/h
[2]; based on C max and AUCinf
  pharmacokinetic interaction with rifampicin (90% CI of LS GMR vs 0.80–1.25): significant interaction
[2]; human, plasma, oral, 400 mg
  Cmax: 1320 ± 282 ng/mL
  half-life: 8 ± 1.2 h
  t max: 3 h
[2]; [10]
  decrease of mean t ½: 2.7 fold
  increase of mean CL/F: sixfold
Safety assessments; across all four studies
  deaths, serious adverse events: no deaths or serious adverse events reported
Safety assessments; across all four studies, healthy male adults
  safety and tolerability: safe and generally well tolerated
Safety assessments; study 15L-CL-010, group that received the 200-mg dose of amenamevir (with single doses of midazolam 7.5 mg)
  participants reporting TEAEs: 9.1%
Safety assessments; study 15L-CL-010, group that received the 400-mg dose of amenamevir (with single doses of midazolam 7.5 mg)
  participants reporting TEAEs: 9.1%
Safety assessments; study 15L-CL-018, 200-mg amenamevir dose
  TEAEs considered to be related to the study drug: myalgia
Safety assessments; study 15L-CL-018, 400-mg amenamevir dose
  TEAEs considered to be related to the study drug: back pain, abdominal pain, and dyspepsia
[3]
  urinary excretion as unchanged drug: approximately 10%
CYP2B6
  correlation of metabolism with marker-enzyme activity: significantly correlated
CYP2C19 [4]
  correlation of metabolism with marker-enzyme activity: significantly correlated
CYP3A4
  induction of enzyme activity: potentially induces
CYP2C9
  induction of enzyme activity: potentially induces
CYP2C19 [5]
  induction of enzyme activity: weak potential for inducing
[6]
  change of AUCinf when administered with food: almost doubling

## CC(=O)C[C@@H](c1ccccc1)c1c(O)c2ccccc2oc1=O [(S)-Warfarin, (S)-warfarin]
[7]; [11]
  AUCinf: 46,725 ± 18,437 ng h/mL
[7]; [12]
  AUCinf: 45,032 ± 23,503 ng h/mL
[7]; [13]
  AUCinf: 50,329 ± 24,609 ng h/mL
[7]; [14]
  CL/F: 0.26 ± 0.07 L/h
  C max: 1217 ± 134 ng/mL
  t max: 4.0 (1.0–4.0) h
[7]; [15]
  CL/F: 0.27 ± 0.08 L/h
  C max: 1251 ± 237 ng/mL
  t max: 2.0 (1.0–4.0) h
[7]; [16]
  CL/F: 0.25 ± 0.07 L/h
  C max: 1194 ± 132 ng/mL
  t max: 4.0 (2.0–4.0) h
[7]; [17]
  CL/F: 0.25 ± 0.08 L/h
  C max: 1168 ± 162 ng/mL
  t max: 4.0 (1.0–4.0) h

## CC(=O)C[C@H](c1ccccc1)c1c(O)c2ccccc2oc1=O [(R)-Warfarin, (R)-warfarin]
[7]; [11]
  AUCinf: 67,092 ± 18,315 ng h/mL
[7]; [12]
  AUCinf: 68,723 ± 12,736 ng h/mL
[7]; [13]
  AUCinf: 75,652 ± 18,160 ng h/mL
[7]; [14]
  CL/F: 0.18 ± 0.04 L/h
  C max: 1240 ± 134 ng/mL
  t max: 4.0 (1.0–12.0) h
[7]; [15]
  CL/F: 0.17 ± 0.03 L/h
  C max: 1262 ± 232 ng/mL
  t max: 4.0 (2.0–12.0) h
[7]; [16]
  CL/F: 0.17 ± 0.04 L/h
  C max: 1197 ± 133 ng/mL
  t max: 4.0 (2.0–4.0) h
[7]; [17]
  CL/F: 0.16 ± 0.04 L/h
  C max: 1187 ± 149 ng/mL
  t max: 4.0 (2.0–12.0) h

## Cc1ncc2n1-c1ccc(Cl)cc1C(c1ccccc1F)=NC2 [Midazolam, midazolam]
[8]; amenamevir 400 mg once daily, based on C max and AUCinf
  pharmacokinetic interaction with amenamevir (90% CI of LS GMR vs 0.80–1.25): significant interaction
[8]; amenamevir 200-mg dose, based on AUCinf
  pharmacokinetic interaction with amenamevir (90% CI of LS GMR vs 0.80–1.25): significant interaction
[8]; human, plasma, oral, 200 mg
  t max: 1.5 h
[8]; human, plasma, oral, 400 mg
  t max: 1.5 h
[8]; midazolam + amenamevir 200 mg once daily
  CL/F: 109.0 ± 43.4 L/h
[8]; midazolam + amenamevir 400 mg once daily
  CL/F: 143.8 ± 68.0 L/h
[8]; midazolam + amenamevir 400 mg once daily, median (range)
  t max: 1.0 (0.5–4.0) h
[8]; midazolam alone, amenamevir 200 mg group
  CL/F: 80.1 ± 37.0 L/h
[8]; midazolam alone, amenamevir 400 mg group
  CL/F: 78.2 ± 39.2 L/h
